Values after ≈ are worked out from the molar mass of the structure shown. Where a name gives a salt, the structure may show the parent alone. Read-outs that look alike come from different tables or passages of the source.
Assays:
HIV (HTLV-IIIB strain) = assay: microbe, parasite or virus in culture; format: cell-based; settings: Human immunodeficiency virus 1, IIIB, MT4, 120 h
In short: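 MT-4 cells (3.5×10^4 per well) were infected with HIV at 60 pfu per well in the presence of diluted compound and incubated for 5 days at 37° C. Surviving cells were then measured by MTT reduction, with the formazan dissolved in acidified isopropanol containing Triton X-100.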

[1] = cytotoxicity in MT-4 cells (MTT, culture medium in place of HIV); format: cell-based; settings: human
In short: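 MT-4 cells (3.5×10^4 per well) exposed to diluted compound with culture medium added instead of HIV, 5 days at 37° C in CO2. MTT added for 1 h, formazan dissolved in Triton X-100/acidified isopropanol. OD read at 560 nm (690 nm reference) and compared with control.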

[2] = target: T1, purified recombinant HIV-1 reverse transcriptase (Human immunodeficiency virus type 1 group M subtype B, UniProt P04585); assay: reverse transcriptase inhibition, poly(rA)/(dT) template primer, [3H]dTTP uptake; format: biochemical
T1 construct: purified recombinant HIV-1 reverse transcriptase; made in house; host or cells: Escherichia coli
In short: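 Inhibition reported as percent reduction of [3H]dTTP incorporation relative to solvent control, after 1 h at 37 °C at pH 8.3. Recombinant RT from E. coli, poly(rA) template with oligo(dT) primer, 4 μM unlabeled dTTP as substrate; product collected on DEAE filter mats.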

[3] = MT-4 cells, 60 pfu HIV per well, 37° C., 5 days, MTT, Tables 1 and 2, read-out: EC50
[4] = MT-4 cells, no virus, 37° C., 5 days, MTT, Table 3, read-out: CC50

Compound	EC50 (HIV (HTLV-IIIB strain); [3])	CC50 at 120 h [1, 4]	IC50 [2]	CC50 at 120 h ([1]; mt-4 cells)	EC50 (HIV (HTLV-IIIB strain))
CC(=O)OCc1nc(C(C)C)c(Sc2cc(Cl)cc(Cl)c2)n1C [Compound I-40, [5-(3,5-dichlorophenylthio)-4-isopropyl-1-methyl-1H-imidazol-2-yl]methyl acetate]	0.016 mg/L	12.5 to 25 mg/L	28.7 µM	–	–
CC(C)c1nc(CO)n(Cc2ccccc2)c1Sc1cccc(Cl)c1 [Compound I-20, [1-benzyl-5-(3-chlorophenylthio)-4-isopropyl-1H-imidazol-2-yl]methanol]	0.008 mg/L (≈ 0.0215 µM)	6.3 to 12.5 mg/L (≈ 16.9 to 33.5 µM)	5.63 µM	–	–
CC(C)c1nc(CCOC(N)=O)n(Cc2cccc([N+](=O)[O-])c2)c1Sc1cc(Cl)cc(Cl)c1 [Compound 128b, 2-(2-Carbamoyloxyethyl)-5-(3,5-dichlorophenylthio)-4-isopropyl-1-(m-nitrobenzyl)-1H-i-imidazole]	0.13 mg/L (≈ 0.255 µM)	–	> 196 µM	6.3 to 12.5 mg/L (≈ 12.4 to 24.5 µM)	–
CC(C)c1nc(CCOC(N)=O)n(Cc2ccc([N+](=O)[O-])cc2)c1Sc1cc(Cl)cc(Cl)c1 [Compound 128a, 2-(2-carbamoyloxyethyl)-5-(3,5-dichlorophenylthio)-4-isopropyl-1-(p-nitrobenzyl)-1H-imidazole]	3.1 to 6.3 mg/L (≈ 6.09 to 12.4 µM)	–	104 µM	6.3 mg/L (≈ 12.4 µM)	–
CC(C)c1nc(COCc2ccccc2)n(CCO)c1Sc1cc(Cl)cc(Cl)c1 [Compound 118c, 2-[2-benzyloxymethyl-5-(3,5-dichlorophenylthio)-4-i-sopropyl-1H-imidazol-1-yl]ethanol]	1 mg/L (≈ 2.22 µM)	–	> 222 µM	6.3 to 12.5 mg/L (≈ 14 to 27.7 µM)	–
CC(Cn1c(COC(N)=O)nc(C(C)C)c1Sc1cc(Cl)cc(Cl)c1)OC(N)=O (stereo not drawn) [Compound I-152, 2-carbamoyloxymethyl-1-(2-carbamoyloxypropyl)-5-(3,5-dichlorophenylthio)-4-isopropyl-1H-imidazole]	< 0.008 mg/L	–	3.25 µM	12.5 to 25 mg/L (≈ 27.1 to 54.2 µM)	–
CC(C)c1nc(CO)n(CC(C)(C)O)c1Sc1cc(Cl)cc(Cl)c1 [Compound I-153, 5-(3,5-dichlorophenylthio)-2-hydroxymethyl-1-(2-hydroxy-2-methylpropyl)-4-isopropyl-1H-imidazole]	0.016 mg/L (≈ 0.0411 µM)	–	25.7 µM	12.5 mg/L (≈ 32.1 µM)	–
CC(C)c1nc(CO)n(C)c1Cc1cccc(Cl)c1 [Compound I-102, [5-(3-chlorobezyl)-4-isopropyl-1-methyl-1H-imidazol-2-yl]methanol]	0.5 to 1 mg/L (≈ 1.79 to 3.59 µM)	1 to 10 mg/L (≈ 3.59 to 35.9 µM)	86.4 µM	–	–
CC(C)c1nc(CO)n(Cc2ccsc2)c1Sc1cc(Cl)cc(Cl)c1 [Compound I-127, 5-(3,5-dichlorophenylthio)-2-hydroxymethyl-4-isopropyl-1-(13-thienylmethyl)-1H-imidazole hydrochloride]	0.016 mg/L	–	14.8 µM	12.5 to 25 mg/L	–
CC(C)c1nc(CN)n(C)c1Sc1cccc(Cl)c1.Cl [Compound I-69, 2-aminomethyl-5-(3-chlorophenylthio)-4-isopropyl-1-methyl-1H-imidazole hydrochloride]	0.25 mg/L	–	6.92 µM	6.3 mg/L	–
Cc1cc(C)cc(Sc2c(C(C)C)nc(C=NO)n2C)c1 [Compound I-10, 5-(3,5-dimethylphenylthio)-4-isopropyl-1-methyl-1H-imidazole-2-carbaldehyde oxime]	1 mg/L (≈ 3.3 µM)	> 100 mg/L	> 330 µM	–	–
CC(C)c1nc(CN)n(C)c1Sc1cc(Cl)cc(Cl)c1.O=C(O)C(=O)O [Compound I-66, 2-aminomethyl-5-(3,5-dichlorophenylthio)-4-isopropyl-1-methylimidazole oxalate]	0.016 mg/L	6.3 to 12.5 mg/L	1.64 µM	–	–
CCCn1c(CO)nc(C(C)C)c1Sc1cccc([N+](=O)[O-])c1 [Compound I-24, [4-isopropyl-5-(3-nitrophenylthio)-1-n-propyl-1H-imidazol-2-yl]methanol]	0.008 mg/L (≈ 0.0239 µM)	25 mg/L (≈ 74.5 µM)	2.98 µM	–	–
CCn1c(COCCOC(C)=O)nc(C(C)C)c1Sc1cc(Cl)cc(Cl)c1 [Compound I-62, 2-{[5-(3,5-dichlorophenylthlio)-1-ethyl-4-isopropyl-1H-imidazol-2-yl]methoxy} ethyl acetate]	0.03 to 0.06 mg/L	12.5 to 25 mg/L	15.8 µM	–	–
CC(C)c1nc(CCOC(N)=O)n(CCOC(N)=O)c1Sc1cc(Cl)cc(Cl)c1 [Compound I-147, 1,2-di-(2-carbamoyloxyethyl)-5-(3,5-dichlorophenylthio)-4-isopropyl-1H-imidazole]	0.005 mg/L (≈ 0.0108 µM)	–	4.33 µM	50 to 100 mg/L (≈ 108 to 217 µM)	–
CCn1c(CCCO)nc(C(C)C)c1Sc1cc(Cl)cc(Cl)c1 [Compound 137b, 3-(5-(3,5-dichlorophenylthio)-1-ethyl-4-isopropyl-1H-imidazol-2-yl)-propan-1-ol]	0.005 to 0.01 mg/L (≈ 0.0134 to 0.0268 µM)	–	0.991 µM	6.3 to 12.5 mg/L (≈ 16.9 to 33.5 µM)	–

Compound	EC50 (HIV (HTLV-IIIB strain); [3])	CC50 at 120 h [1, 4]	IC50 [2]	CC50 at 120 h ([1]; mt-4 cells)	EC50 (HIV (HTLV-IIIB strain))
CC(C#N)c1nc(COC(N)=O)n(C)c1Sc1cccc(Cl)c1 (stereo not drawn) [Compound I-98, 2-[2-carbamoyloxymethyl-5-(3-chlorophenylthio)-1-methyl-1H-imidazol-4-yl]propiononitrile]	–	10 to 100 mg/L (≈ 28.5 to 285 µM)	105 µM	–	1 mg/L (≈ 2.85 µM)
CC(C)c1nc(CO)n(Cc2cnc3ccccc3c2)c1Sc1cc(Cl)cc(Cl)c1 [Compound 109, 2-hydroxymethyl-5-(3,5-dichlorophenylthio)-4-isopropyl-1-(quinolin-3-ylmethyl)-1H-imidazole]	0.008 mg/L (≈ 0.0175 µM)	–	4.36 µM	100 mg/L (≈ 218 µM)	–
CC(C)c1nc(CCOC(N)=O)n(C)c1Sc1cc(Cl)cc(Cl)c1 [Compound I-81, 2-(2-carbamoyloxy)ethyl-5-(3,5-dichlorophenylthio)-4-isopropyl-1-methyl-1H-imidazole]	–	10 to 100 mg/L (≈ 25.8 to 258 µM)	7.73 µM	–	0.13 mg/L (≈ 0.335 µM)
CC(C)C(=O)c1nc(C(C)C)c(Sc2cc(Cl)cc(Cl)c2)n1C [Compound I-12, [5-(3,5-dichlorophenylthio)-4-isopropyl-1-methyl-1H-imidazol-2-yl] isopropyl ketone]	50 mg/L (≈ 135 µM)	50 to 100 mg/L (≈ 135 to 269 µM)	> 269 µM	–	–
CC(C)c1nc(COC(N)=O)n(Cc2ccc(=O)[nH]c2)c1Sc1cc(Cl)cc(Cl)c1 [Compound I-131, 2-carbamoyloxymethyl-5-(3,5-dichlorophenylthio)-1-(6-oxo-1,6-dihydro-pyridin-3-yl)methyl-4-isopropyl-1H-imidazoles]	0.003 mg/L (≈ 0.00642 µM)	–	2.78 µM	38.8 mg/L (≈ 83 µM)	–
CCOC(=O)Cn1c(CCOCc2ccccc2)nc(C(C)C)c1Sc1cc(Cl)cc(Cl)c1 [Compound 130c]	0.5 mg/L (≈ 0.985 µM)	–	> 197 µM	12.5 mg/L (≈ 24.6 µM)	–
CC(C)c1nc(CO)n(Cc2ccccc2)c1Sc1cccc([N+](=O)[O-])c1 [Compound I-21, [1-benzyl-4-isopropyl-5-(3-nitrophenylthio)-1H-imidazol-2-yl]methanol]	0.008 mg/L (≈ 0.0209 µM)	6.3 to 12.5 mg/L (≈ 16.4 to 32.6 µM)	7.56 µM	–	–
CC(C)c1nc(CO)n(CCO)c1Sc1cc(Cl)cc(Cl)c1 [Compound 119b, 2-(5-(3,5-dichlorophenyl-thio)-2-hydroxymethyl-4-isopropyl-1H-imidazol-1-yl)ethanol]	< 0.008 mg/L	–	1.72 µM	12.5 to 25 mg/L (≈ 34.6 to 69.2 µM)	–
CCn1c(CO)nc(C(C)C)c1Sc1cccc(F)c1 [Compound I-37, [1-ethyl-5-(3-fluorophenylthio)-4-isopropyl-1H-imidazol-2-yl]methanol]	0.0005 mg/L (≈ 0.0017 µM)	25 mg/L (≈ 84.9 µM)	0.204 µM	–	–
CC(C)c1nc(CCO)n(Cc2ccc(N)cc2)c1Sc1cc(Cl)cc(Cl)c1 [Compound I-139, 1-(p-aminobenzyl)-5-(3,5-dichlorophenylthio)-2-hydroxyethyl-4-isopropyl-1H-imidazole]	< 0.008 mg/L	–	3.67 µM	6.3 mg/L (≈ 14.4 µM)	–
CC(C)c1nc(CN=C(N)N)n(C)c1Sc1cc(Cl)cc(Cl)c1 [Compound I-86, 2-diaminomethylenemethylaminomethyl-5-(3,5-dichlorophenylthio)-4-isopropyl-1-methylimidazole]	1 mg/L (≈ 2.69 µM)	–	33.6 µM	1 mg/L (≈ 2.69 µM)	–
CC(C)c1nc(CO)n(C(C)C)c1Sc1cc(Cl)cc(Cl)c1 [Compound I-27, [5-(3,5-dichlorophenylthio)-1,4-diisopropyl-1H-imidazol-2-yl]methanol]	0.03 mg/L (≈ 0.0835 µM)	10 to 100 mg/L (≈ 27.8 to 278 µM)	3.34 µM	–	–
CC(C)c1nc(CO)n(Cc2ccc[nH]c2=O)c1Sc1cc(Cl)cc(Cl)c1 [Compound 116b, 5-(3,5-dichlorophenyl-thio)-2-hydroxymethyl-1-(2(1H)-pyridon-3-ylmethyl)-4-isopropyl-1H-imidazole]	0.016 mg/L (≈ 0.0377 µM)	–	7.54 µM	50 mg/L (≈ 118 µM)	–
CCOC(=O)Cn1c(CCCOCc2ccccc2)nc(C(C)C)c1Sc1cc(Cl)cc(Cl)c1 [Compound 136d, (2-(3-benzyloxypropyl)-5-(3,5-dichlorophenylthio)-4-isopropyl-1H-imidazol-1-yl)-ethyl acetate]	0.5 mg/L	–	> 192 µM	12.5 mg/L	–
CC(C)c1nc(COC(N)=O)n(CC(F)(F)F)c1Sc1cc(Cl)cc(Cl)c1 [Compound I-55, 2-carbamoyloxymethyl-5-(3,5-dichlorophenylthio)-4-isopropyl-1-(1,1,1-trifluoroethyl)-1H-imidazole]	0.008 mg/L (≈ 0.0181 µM)	10 to 100 mg/L (≈ 22.6 to 226 µM)	5.65 µM	–	–

— US6147097A, “Imidazole derivatives as anti-HIV agents” (Shionogi & Co., Ltd., priority 1994, dated 2000)
